# Measurements taken from PMC10380385, “Synthesis, In Vitro, and In Vivo Investigations of Pterostilbene-Tethered Analogues as Anti-Breast Cancer Candidates” (International Journal of Molecular Sciences, 2023).
# Test system: apoptosis-related proteins in MDA-MB-231 cells
# Experiment: Western blot of apoptosis-related proteins, MDA-MB-231
# Format: cell-based, human
# Conditions: MDA-MB-231, 2L 1.1, 3.3, 10 μM, 24 h
# Description: MDA-MB-231 and MCF-7 cells were cultured in a 6-well plate with the density of 3 × 10^5 cells/well and treated with different concentrations of 2L (0, 1.1, 3.3, 10 μM) for 24 h. The cells were lysed in radioimmunoprecipitation assay (RIPA) buffer (Beyotime, Shanghai, China) containing 1% protease inhibitor cocktail and 1 mM phenylmethylsulfonyl fluoride (PMSF, Sigma-Aldrich, St. Louis, MO, USA). After centrifugation, the supernatant was collected and quantified by BCA assay (Beyotime). Lysates were mixed with the loading buffer (5 ×) and denatured by boiling for 10 min. Then, the equivalent samples were separated via 10–15% sodium dodecyl–sulfate polyacrylamide gel electrophoresis (SDS-PAGE), transferred to 0.45 µm immunoblot poly(vinylidene fluoride) (PVDF) membranes (Merck Millipore, Darmstadt, Germany) at 4 °C, and blocked in 5% skimmed milk in TBST for 1 h at room temperature. The membranes were incubated overnight at 4 °C with specific primary antibodies. After washing three times with TBST, the PVDF membranes were incubated with horseradish peroxidase (HRP)-conjugated secondary antibodies at rt for 1 h. Lastly, the resulting bands were visualized by a Bio-Rad ChemiDoc imaging system ([…]) using enhanced chemiluminescence reagents (Millipore, Billerica, MA, USA). The details of the corresponding primary antibodies were as follows: Bax (2772; Cell Signaling Technology), Bcl-2 (3498; Cell Signaling Technology), cleaved caspase-3 (9661; Cell Signaling Technology), cleaved caspase-9 (9505; Cell Signaling Technology), and PARP (9542; Cell Signaling Technology). The HRP-secondary antibodies were also obtained from Cell Signaling Technology (Boston, MA, USA).
smiles,measurement,value
"COc1cc(/C=C/c2ccc(OCCCN3CCCCC3)cc2)cc(OC)c1 [Compound 2L, (E)-1-(3-(4-(3,5-dimethoxystyryl)phenoxy)propyl)piperidine]",expression of Bcl-2,markedly downregulated
same,level of Bax,upregulated
same,protein expression of cleaved caspase-3,increase
same,protein expression of cleaved caspase-9,increase
same,protein level of cleaved PARP,effectively elevate
